Where a name gives a salt, the structure may show the parent alone. Read-outs that look alike come from different tables or passages of the source.
Tests used:
[1] = In vitro dissolution rate test in phosphate buffer (1000 ml, 50 turns per minute, HPLC); format: physicochemical; design: unit not given here
Experimental: PVP was used as the carrier material. The solid dispersion is prepared by solvent method (drug:carrier=1:10), and the method to evaluate solubility in vitro is given as follows:
Using this method, 5 ml of the solution was taken at 5 min, 10 min, 15 min, 20 min, 30 min, 45 min, and 60 min (5 ml dissolution medium was supplemented after the 5 ml solution was taken out) and filtered. The filtrate was taken as the test solution and checked for purity using HPLC.
(2) A solid dispersion which contains the drug substance 5 mg, according to the method of dissolution rate test and 1000 ml at pH 6.8 phosphate buffer was used as dissolution medium, with a rotating speed of 50 turns per minute. Using this method, 5 ml of the solution was taken at 5 min, 10 min, 15 min, 20 min, 30 min, 45 min, and 60 min (5 ml dissolution medium was supplemented after the 5 ml solution was taken out) and filtered. The filtrate was taken as the test solution and checked for purity using HPLC.
The dissolution rate of examples 1-11 were evaluated by the evaluation system mentioned above.
The dissolution rate was evaluated in pH 4.5 phosphate buffer:
The dissolution rate was evaluated in pH6.8 phosphate buffer: […]

[2] = cited from earlier work
[3] = drugs administrated alone; cited from earlier work
[4] = In vitro dissolution rate test in phosphate buffer (1000 ml, 50 turns per minute, HPLC); format: physicochemical

dissolution rate ([1]; pH 4.5 phosphate buffer, 0 min) | dissolution rate ([1]; pH 4.5 phosphate buffer, 5 min) | dissolution rate ([1]; pH 4.5 phosphate buffer, 10 min) | dissolution rate ([1]; pH 4.5 phosphate buffer, 15 min) | dissolution rate ([1]; pH 4.5 phosphate buffer, 20 min) | dissolution rate ([1]; pH 4.5 phosphate buffer, 30 min) | dissolution rate ([1]; pH 6.8 phosphate buffer, 0 min) | dissolution rate ([1]; pH 6.8 phosphate buffer, 5 min) | dissolution rate ([1]; pH 6.8 phosphate buffer, 15 min) | dissolution rate ([1]; pH 6.8 phosphate buffer, 30 min) | dissolution rate ([1]; pH 6.8 phosphate buffer, 45 min) | dissolution rate ([1]; pH 6.8 phosphate buffer, 60 min) | dissolution rate after micronization only ([4]; pH4.5 and pH6.8, compared to prasugrel hydrochloride prepared by only micronization) | SMILES | solubility ([2]; pH 1-4) | solubility ([2]; pH 5) | solubility ([2]; pH 6-7) | bioavailability, hydrochloride vs free base form [3] | solubility after micronization only ([4]; pH 6.8, compared to prasugrel hydrochloride)
0 | 16.71 | 26.66 | 32.45 | 36.78 | 43.42 | 0 | 13.69 | 21.03 | 23.99 | 25.13 | 25.62 |  | CC(=O)Oc1cc2c(s1)CCN(C(C(=O)C1CC1)c1ccccc1F)C2 (stereo not drawn) [Prasugrel hydrochloride, prasugrel hydrochloride] | slightly soluble | very slightly soluble | insoluble | about equal | 
 |  |  |  |  |  |  |  |  |  |  |  | improved, but there is still a gap | CC(=O)Oc1cc2c(s1)CCN(C(C(=O)C1CC1)c1ccccc1F)C2 (stereo not drawn) [prasugrel, 5-(2-cyclopropyl-1-(2-fluorophenyl)-2-oxoethyl)-4,5,6,7-tetrahydrothieno[3,2-c]pyridin-2-yl acetate] |  |  |  |  | poorer than that of prasugrel hydrochloride
